Assay results published in paper PMC10817174, “Integrated drug response prediction models pinpoint repurposed drugs with effectiveness against rhabdomyosarcoma” (PLOS ONE, 2024).
Entries after “also recorded” stand apart in the source; their conditions may differ. Read-outs that look alike come from different tables or passages of the source.

B1: rTRAIL: GDSC anti-cancer compound (protein, UniProt P50591 1-281, looked up)
Tumor necrosis factor ligand …: MAMMEVQGGPSLGQTCVLIVIFTVLLQSLCVAVTYVYFTNELKQMQDKYSKSGIACFLKEDDSYWDPNDEESMNSPCWQVKWQLRQLVRKMILRTSEETISTVQEKQQNISPLVRERGPQRVAAHITGTRGRSNTLSSPNSKNEKALGRKINSWESSRSGHSFLSNLHLRNGELVIHEKGFYYIYSQTYFRFQEEIKENTKNDKQMVQYIYKYTSYPDPILLMKSARNSCWSKDAEYGLYSIYQGGIFELKENDRIFVSVTNEHLIDMDHEASFFGAFLVG

How the values were obtained:
GDSC-RD cell line = conditions: cited from earlier work; for Iorio_RD: Table S2, published drug response ref Iorio et al. (2016)
[1] = test system: SJCRH30 (human alveolar rhabdomyosarcoma) cells; assay: MTT cell viability assay in SJCRH30 cells; type: cell-based; conditions: 24 h; for anti-proliferation / anti-cancer activity in SJCRH30 cells: in words; for IC50: SJ-S drugs, SJCRH30 cells, read-out: IC50(μM) RMS
Description: (§1) The RD (human embryonal rhabdomyosarcoma) and CCD-18Co (human colon fibroblast) cell lines were purchased from the Korean Cell Line Bank (KCLB). SJCRH30 (human alveolar rhabdomyosarcoma) cell line was purchased from the American Type Culture Collection (ATCC). RD and CCD-18Co cells were maintained in Dulbecco’s Modified Eagle’s Medium (DMEM; Gibco) supplemented with 10% fetal bovine serum (FBS; Gibco) and 1% penicillin/streptomycin (P/S; Gibco). SJCRH30 cells were maintained in Roswell Park Memorial Institute medium (RPMI 1640, Gibco) supplemented with 10% FBS and 1% P/S. Cells were grown in a humidified chamber containing 5% CO2 at 37°C. Cell line authentication was performed by short tandem repeat profile using PowerPlex® 18D system (Promega Corporation) and sequencing apparatus Applied Biosystems 3130xl Genetic Analyzer (Applied Biosystem) according to manufacturer’s protocol.
(§2) SJCRH30, RD, and CCD-18Co cells were seeded at 2 × 10^4 cells/well in 96-well plates. The candidate drugs were treated for 24 h. AZ628, BIX02189, fedratinib, nutlin-3a, VX-11e, SB590885, NSC207895, tubastatin A, CX-5461, navitoclax, GSK1070916 and the FDA-approved drug library were purchased from Selleckchem. GW.44175 was purchased from Cayman chemical. MTT (3-(4,5-Dimethylthiazol-2-yl)-2,5-Diphenyltetrazolium bromide, Sigma) cell viability detection reagent diluted in serum free medium was added to each well and incubated for 2 h at 37°C. The supernatant was removed, and 50 μL DMSO was added to dissolve the precipitate. Absorbance was measured at 570 nm using a Molecular Devices VersaMax microplate reader and SoftMax® Pro 5 software. IC50 was calculated with GraphPad Prism 7 software.

GDSC-SJCRH30 cell line = conditions: cited from earlier work; for Iorio_SJCRH30: Table S2, published drug response ref Iorio et al. (2016)
[2] = test system: CCD-18Co (human colon fibroblast) cells; assay: MTT cell viability assay in normal control cells; type: cell-based; conditions: for IC50 / IC50(μM) CCD-18Co: normal cell control, 24 h; for selective anti-cancer activity against the RMS cell lines: based on the CCD-18Co control results
Description: as §1, §2

SJCRH30 cells = assay: Caspase-3/7 activity assay in SJCRH30 cells; type: cell-based, human; conditions: 24 h
Method: (§3) The activity of caspase-3/7 was detected with the CellEvent^TM Caspase-3/7 Green detection kit (Thermo Fisher Scientific, C10423), following the manufacturer’s instructions. SJCRH30 and RD cells were seeded at 2 × 10^4 cells/well in 96-well plates. […] Stained cells were observed under fluorescent microscopy (LEICA, DMI3000 B). Drugs were treated in triplicates and 4 pictures of each well were captured. The percentage of caspase-3/7 positive cells per field of view was quantified using ImageJ software.

RD cells = assay: Caspase-3/7 activity assay in RD cells; type: cell-based, human; conditions: 24 h
Method: as §3

[3] = test system: RD (human embryonal rhabdomyosarcoma) cells; assay: MTT cell viability assay in RD cells; type: cell-based; conditions: 24 h; for anti-proliferation / anti-cancer activity in RD cells: in words; for IC50: RD-S drugs, RD cells, read-out: IC50(μM) RMS
Description: as §1, §2

Ewing’s sarcoma = test system: Ewing’s sarcoma; design: method as in PMID 26095524; conditions: Ewing’s sarcoma ref 42; cited from earlier work
[4] = heavily pre-treated soft-tissue sarcoma patients ref 43; cited from earlier work
uterine sarcoma = conditions: in vitro and in vivo ref 44; cited from earlier work
[5] = Homo sapiens, Rhabdomyosarcoma cell

Molecule | Iorio_RD (GDSC-RD cell line) | anti-proliferation / anti-cancer activity in SJCRH30 cells [1] | IC50 [1, 5] [µM] | Iorio_SJCRH30 (GDSC-SJCRH30 cell line) | anti-proliferation / anti-cancer activity in RD cells [3] | other results
CCc1cc2c(cc1N1CCC(N3CCOCC3)CC1)C(C)(C)c1[nH]c3cc(C#N)ccc3c1C2=O [Alectinib] | R | higher anti-cancer activity | 3.21 | S | – | IC50 ([2]; Homo sapiens, CCD-18Co, MTT): 5.96 µM
O=C(/C=C/c1cccc(S(=O)(=O)Nc2ccccc2)c1)NO [Belinostat] | R | higher anti-cancer activity; also recorded: reduced cells proliferation to a greater degree than the clinical drugs; also recorded: sensitive | 0.146 | R | – | IC50 [1]: 0.146 µM; caspase-3/7 activation (SJCRH30 cells): increased level of caspase-3/7 activation; GDSC-SJCRH30 drug response (GDSC-SJCRH30 cell line): resistant; selective anti-cancer activity against the RMS cell lines [2]: selective anti-cancer activity; IC50(μM) CCD-18Co ([2]; MTT): No cytotoxicity
CCn1cc(-c2ccnc3[nH]c(-c4cccc(CN(C)C)c4)cc23)c(-c2ccc(NC(=O)N(C)C)cc2)n1 [GSK1070916] | R | higher anti-cancer activity | 1.4 | R | – | IC50(μM) CCD-18Co ([2]; MTT): No cytotoxicity
CN1CCN(c2ccc([N+](=O)[O-])c3no[n+]([O-])c23)CC1 [NSC207895] | S | – | – | R | higher anti-cancer activity; also recorded: effectively inhibited cell proliferation compared to vincristine and cyclophosphamide | caspase-3/7 activation (RD cells): significantly induced the activation of caspase-3/7; IC50 [3]: 6.57 µM; apoptosis induction (Ewing’s sarcoma): induces p53-independent apoptosis; selective anti-cancer activity against the RMS cell lines [2]: selective anti-cancer activity; IC50(μM) CCD-18Co ([2]; MTT): No cytotoxicity
CC1(C)CCC(c2ccc(Cl)cc2)=C(CN2CCN(c3ccc(C(=O)NS(=O)(=O)c4ccc(N[C@H](CCN5CCOCC5)CSc5ccccc5)c(S(=O)(=O)C(F)(F)F)c4)cc3)CC2)C1 [Navitoclax] | – | higher anti-cancer activity | 0.764 | R | – | IC50 ([2]; Homo sapiens, CCD-18Co, MTT): 0.319 µM
CN(C)CCOc1ccc(-c2nc(-c3ccncc3)c(-c3ccc4c(c3)CC/C4=N\O)[nH]2)cc1 [SB590885] | – | – | – | R | higher anti-cancer activity | IC50 ([3]; Homo sapiens): 2.52 µM; IC50 ([2]; Homo sapiens, CCD-18Co, MTT): 4.88 µM
Cc1cnc(Nc2ccc(F)cc2Cl)nc1-c1c[nH]c(C(=O)N[C@H](CO)c2cccc(Cl)c2)c1 [VX-11e] | S | – | – | R | higher anti-cancer activity | IC50 [3]: 3.79 µM; IC50 ([2]; MTT): 4.04 µM
O=C(CCCCCCC(=O)Nc1ccccc1)NO [Vorinostat] | – | higher anti-cancer activity; also recorded: reduced cells proliferation to a greater degree than the clinical drugs | – | S | – | patients with long-term disease stabilization [4]: 6 of the 40; uterine sarcoma growth (uterine sarcoma): inhibited the uterine sarcoma growth; caspase-3/7 activation (SJCRH30 cells): increased level of caspase-3/7 activation
Cc1cnc(Nc2ccc(OCCN3CCCC3)cc2)nc1Nc1cccc(S(=O)(=O)NC(C)(C)C)c1 [fedratinib] | R | high non-selective anti-proliferation activity; also recorded: high in vitro sensitivity | – | R | high non-selective anti-proliferation activity; also recorded: high in vitro sensitivity | GDSC-RD drug response (GDSC-RD cell line): resistance; toxicity toward the CCD-18Co control line ([2]; MTT, in words): toxicity toward the control line; also recorded: highly sensitive
COc1cc(/C=C/C(=O)N2CCC=CC2=O)cc(OC)c1OC [piperlongumine] | S | – | – | R | – | –
CCT007093 | R | – | – | R | – | –
I-BET-151 | R | – | – | R | – | –
B1 | S | – | – | R | – | –
